Target: T1, IKKε (Homo sapiens, UniProt Q14164)
T1 sequence (Q14164 1-716): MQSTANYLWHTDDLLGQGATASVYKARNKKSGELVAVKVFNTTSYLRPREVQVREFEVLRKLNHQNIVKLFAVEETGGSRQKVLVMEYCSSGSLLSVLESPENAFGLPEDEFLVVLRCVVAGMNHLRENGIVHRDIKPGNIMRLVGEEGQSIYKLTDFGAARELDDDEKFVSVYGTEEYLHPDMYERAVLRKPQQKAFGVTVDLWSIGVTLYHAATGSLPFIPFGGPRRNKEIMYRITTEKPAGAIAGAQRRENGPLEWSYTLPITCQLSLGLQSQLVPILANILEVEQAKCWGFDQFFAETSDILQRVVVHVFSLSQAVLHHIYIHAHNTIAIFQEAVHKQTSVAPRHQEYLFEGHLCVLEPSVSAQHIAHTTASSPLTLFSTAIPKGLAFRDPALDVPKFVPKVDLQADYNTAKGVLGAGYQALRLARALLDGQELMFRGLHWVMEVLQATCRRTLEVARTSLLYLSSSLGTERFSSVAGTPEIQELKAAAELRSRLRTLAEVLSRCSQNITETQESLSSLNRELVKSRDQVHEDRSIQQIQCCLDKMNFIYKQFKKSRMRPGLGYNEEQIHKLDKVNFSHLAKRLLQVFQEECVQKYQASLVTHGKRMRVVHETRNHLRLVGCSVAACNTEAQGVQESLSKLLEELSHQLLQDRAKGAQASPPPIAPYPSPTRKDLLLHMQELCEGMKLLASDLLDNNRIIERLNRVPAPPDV
Type: biochemical

SMILES: N#CCNC(=O)c1ccc(-c2ccnc(Nc3ccc(N4CCOCC4)cc3)n2)cc1 [CYT387]
- IC50: 0.042 µM
